# Values quoted from earlier work as cited in publication PMC10208580 (Science Advances, 2023).
# Test system: RyRs
# Conditions: higher concentrations of ryanodine; cited from earlier work
# Excerpt: Subconducting states have also been observed in the presence of low concentrations of ryanodine. At higher concentrations, however, addition of ryanodine results in full block ([25]). […] A previous cryo-EM study has resolved density for ryanodine in the pore-forming region, inside the inner vestibule below Gln^4933 ([15]). As this site is >13 Å away from IpCa, ryanodine and IpCa can bind to RyRs simultaneously (fig. S12). Whereas IpCa causes ...
substance,measurement,value
ryanodine,Effect on channel conductance at higher concentrations,full block
